Drawing on the RepoRT retention time repository, this text covers LC retention time for 37 compounds.

Molecules are shown by their SMILES. Structures can show the parent of a compound that is named as a salt.

The data set in a line: HILIC, Merck SeQuant ZIC-HILIC, 25 °C, 0.25 mL/min; A: water + 16 mM ammonium formate; B: acetonitrile + 0.1% formic acid, pH 3; gradient (min/%B) 0/97 2/97 10/70 15/10 17/10 18/97 25/97. As to conditions: stereoisomer not certain.
With `NCCc1ccc(O)c(O)c1` [DOPAMINE], the LC retention time is 12.5 min.
`Cc1cn(C2CC(O)C(COP(=O)(O)OP(=O)(O)OC3OC(CO)C(O)C(O)C3O)O2)c(=O)[nH]c1=O` [DTDP-D-GLUCOSE]: the LC retention time amounted to 14.4 min.
The value for `CC(=O)C1C(=O)C=C(C)OC1=O` (configuration not stated) [Dehydroacetic acid] was 1.56 min; that for `COC(=O)C(=O)OC` [Dimethyl oxalate] was 2.24 min.
The value for `CC12CCC3c4ccc(O)cc4CCC3C1CCC2O` (stereo not drawn) [ESTRADIOL-17ALPHA] was 1.7 min.
As for `NCCOP(=O)(O)O` [ETHANOLAMINE PHOSPHATE], the LC retention time worked out at 14.9 min.
Turning to `CCOC(=O)CCNC(N)=O` [ETHYL 3-UREIDOPROPIONATE], the LC retention time came out at 2.14 min.
The value for `Cc1cc2nc3c(=O)[nH]c(=O)nc-3n(CC(O)C(O)C(O)COP(=O)(O)OP(=O)(O)OCC3OC(n4cnc5c(N)ncnc54)C(O)C3O)c2cc1C` (configuration not stated) [FAD] was 13.8 min; that for `COc1cc(C=CC(=O)O)ccc1O` [FERULATE] was 1.94 min; that for `O=C[O-]` [FORMATE] was 2.79 min.
The value for `O=P(O)(O)OC1OC(CO)C(O)C(O)C1O` (configuration not stated) [GALACTOSE 1-PHOSPHATE] was 14.7 min.
The value for `NCCCC(=O)O` [GAMMA-AMINOBUTYRATE] was 13.5 min; that for `O=C(O)C(O)C(O)C(O)C(O)CO` (configuration not stated) [GLUCONATE] was 13.6 min; that for `O=C1OC(CO)C(O)C(O)C1O` (configuration not stated) [GLUCONOLACTONE] was 14.5 min.
Take `NC(C(=O)O)C(O)C(O)C(O)CO` (configuration not stated) [GLUCOSAMINATE]: the LC retention time was 14.7 min.
Turning to `NC1C(O)OC(COS(=O)(=O)O)C(O)C1O` (configuration not stated) [GLUCOSAMINE 6-SULFATE], the LC retention time turned out to be 15.5 min.
Turning to `NC(CCC(=O)O)C(=O)O` (configuration not stated) [GLUTAMATE], the LC retention time is 14.2 min.
The value for `O=C(O)CCCC(=O)O` [GLUTARATE] was 2.13 min; that for `O=CC(O)CO` (configuration not stated) [GLYCERALDEHYDE] was 2.77 min.
The value for `O=C(O)C(O)CO` (configuration not stated) [GLYCERATE] was 8.39 min.
As to `O=P(O)(O)OCC(O)CO` (configuration not stated) [GLYCEROL 3-PHOSPHATE], the LC retention time is 14.1 min.
The value for `CCCCCCCCCCCCCC(=O)OCC(O)CO` (configuration not stated) [GLYCEROL-MYRISTATE] was 1.64 min; that for `O=C(O)CO` [GLYCOLATE] was 4 min.
As to `NC(N)=NCC(=O)O` [GUANIDINOACETATE], the LC retention time is 14 min.
The value for `NC(N)=NC(CC(=O)O)C(=O)O` (configuration not stated) [GUANIDINOSUCCINATE] was 14.4 min.
Regarding `Nc1nc2nc[nH]c2c(=O)[nH]1` [GUANINE], the LC retention time was 10.8 min.
The value for `Nc1nc2c(ncn2C2OC(COP(=O)(O)OP(=O)(O)OC3OC(CO)C(O)C(O)C3O)C(O)C2O)c(=O)[nH]1` (configuration not stated) [GUANOSINE DIPHOSPHATE MANNOSE] was 15.2 min; that for `Nc1nc2c(ncn2C2OC(COP(=O)(O)OP(=O)(O)O)C(O)C2O)c(=O)[nH]1` (configuration not stated) [GUANOSINE DIPHOSPHATE] was 15.4 min.
In the case of `Nc1nc2c(ncn2C2OC(COP(=O)(O)O)C(O)C2O)c(=O)[nH]1` (configuration not stated) [GUANOSINE MONOPHOSPHATE], the LC retention time was found to be 14.7 min.
In the case of `Nc1nc2c(ncn2C2OC(CO)C(O)C2O)c(=O)[nH]1` (configuration not stated) [GUANOSINE], the LC retention time was 11.4 min.
The value for `NCC(=O)NCC(=O)O` [Gly-Gly] was 14.9 min; that for `[NH3+]CC(=O)N1CCCC1C(=O)[O-]` (configuration not stated) [Gly-Pro] was 15 min; that for `O=C(O)CNC(=O)c1ccccc1` [HIPPURATE] was 2.12 min.
The value for `NCCc1cnc[nH]1` [HISTAMINE] was 17 min; that for `NC(CO)Cc1cnc[nH]1` (configuration not stated) [HISTIDINOL] was 17 min.
The value for `NC1CCSC1=O` (configuration not stated) [HOMOCYSTEINE THIOLACTONE] was 11.8 min; that for `NC(CCS)C(=O)O` (configuration not stated) [HOMOCYSTEINE] was 12.4 min.
